The text below walks through data of the Kinase Knowledgebase extract (Sharma et al. 2016).

The target in the assay is PIK3CA (human) (UniProt P42336). Nature of the assay: Assessment of PIK3CA Kinase Activity.
Chain of PIK3CA (human) (P42336 whole entry, looked up): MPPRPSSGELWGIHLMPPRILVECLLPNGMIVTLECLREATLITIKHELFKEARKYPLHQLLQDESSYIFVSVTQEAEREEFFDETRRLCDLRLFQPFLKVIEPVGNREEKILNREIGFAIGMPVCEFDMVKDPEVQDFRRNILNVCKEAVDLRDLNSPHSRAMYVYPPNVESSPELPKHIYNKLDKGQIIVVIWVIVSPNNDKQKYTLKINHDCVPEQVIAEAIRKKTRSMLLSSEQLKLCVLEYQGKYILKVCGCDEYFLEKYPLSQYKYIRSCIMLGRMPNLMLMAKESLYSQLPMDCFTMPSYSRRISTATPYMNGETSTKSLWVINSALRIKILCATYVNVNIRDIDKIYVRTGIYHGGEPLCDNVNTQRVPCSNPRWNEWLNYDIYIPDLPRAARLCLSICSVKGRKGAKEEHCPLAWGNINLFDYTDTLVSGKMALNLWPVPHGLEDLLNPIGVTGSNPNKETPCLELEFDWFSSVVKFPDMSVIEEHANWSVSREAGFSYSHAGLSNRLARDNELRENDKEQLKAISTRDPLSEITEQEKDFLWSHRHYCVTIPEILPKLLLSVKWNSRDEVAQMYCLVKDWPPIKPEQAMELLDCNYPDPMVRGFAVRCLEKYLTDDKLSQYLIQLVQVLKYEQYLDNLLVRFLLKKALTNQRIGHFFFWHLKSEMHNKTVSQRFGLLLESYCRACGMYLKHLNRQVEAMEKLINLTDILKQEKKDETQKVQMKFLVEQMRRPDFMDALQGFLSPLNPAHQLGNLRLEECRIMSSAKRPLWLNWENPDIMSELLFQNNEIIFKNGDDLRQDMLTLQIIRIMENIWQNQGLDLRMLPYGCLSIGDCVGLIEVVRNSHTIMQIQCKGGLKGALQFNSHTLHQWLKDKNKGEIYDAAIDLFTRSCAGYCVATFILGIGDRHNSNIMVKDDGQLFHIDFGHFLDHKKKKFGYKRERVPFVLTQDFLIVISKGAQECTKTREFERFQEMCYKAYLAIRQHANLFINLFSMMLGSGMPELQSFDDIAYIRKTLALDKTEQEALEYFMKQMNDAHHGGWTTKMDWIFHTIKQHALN
The IC50 is the concentration that gives 50% inhibition. Higher therefore signals a need for much substance. The molecule `CS(=O)(=O)NCCNc1nn2c(-c3cnc(N)c(C(F)(F)F)c3)cnc2s1` gave an IC50 of 269 nM.

Consider `CS(=O)(=O)NCC1CCCN(c2nn3c(-c4cnc(N)c(C(F)(F)F)c4)cnc3s2)C1` (stereo not given), for which the IC50 was found to be 102 nM.

On to `Nc1ncc(-c2cnc3sc(N4CCC5(CCNCC5)CC4)nn23)cc1C(F)(F)F`, for which the IC50 is 141 nM.

For `CS(=O)(=O)N1CC2CN(c3nn4c(-c5cnc(N)c(C(F)(F)F)c5)cnc4s3)CC2C1` (stereo not given), the IC50 amounted to 34 nM.

For the molecule `CN(c1nn2c(-c3cnc(N)c(C(F)(F)F)c3)cnc2s1)C1CCNCC1`, the IC50 was in the range of 50 to 1000 nM.

In turn, `Nc1ncc(-c2cnc3sc(N[C@H]4CC[C@@H](N)CC4)nn23)cc1C(F)(F)F` displayed an IC50 of 1 to 50 nM.

As for `NC(=O)C1CCN(c2nn3c(-c4cnc(N)c(C(F)(F)F)c4)cnc3s2)CC1`, the IC50 was 50 to 1000 nM.

With `NCCCNc1nn2c(-c3cnc(N)c(C(F)(F)F)c3)cnc2s1`, the IC50 lay in the range of 50 to 1000 nM.

Molecule `Nc1ncc(-c2cnc3sc(NC4CCNCC4)nn23)cc1C(F)(F)F` yielded an IC50 of 67 nM.

Molecule `CCNC(=O)N[C@H]1CC[C@H](Nc2nn3c(-c4cnc(N)c(C(F)(F)F)c4)cnc3s2)CC1` showed an IC50 of 5 nM. Compared with the last molecule, the IC50 is about 13-fold lower.

`CC(=O)N[C@H]1CC[C@@H](Nc2nn3c(-c4cnc(N)c(C(F)(F)F)c4)cnc3s2)CC1` displayed a 50% inhibitory concentration (IC50) of 50 to 1000 nM.

The molecule `CC(C)(C)OC(=O)N1CCC2(CCCN(c3nn4c(-c5cnc(N)c(C(F)(F)F)c5)cnc4s3)C2)CC1` displayed an IC50 of 50 to 1000 nM.

Take `CC(C)(C)OC(=O)N1CCN(c2nn3c(-c4cnc(N)c(C(F)(F)F)c4)cnc3s2)CC1`: the IC50 lay in the range of 50 to 1000 nM.

Regarding `Nc1ncc(-c2cnc3sc(N[C@H]4CC[C@H](NS(=O)(=O)c5ccc(F)cc5F)CC4)nn23)cc1C(F)(F)F`, the 50% inhibitory concentration (IC50) lay in the range of 50 to 1000 nM.

`CC(C)(C)OC(=O)NCCCNc1nn2c(-c3cnc(N)c(C(F)(F)F)c3)cnc2s1` displayed a half-maximal inhibitory concentration (IC50) of 50 to 1000 nM.

In turn, `CCOC(=O)C1CCCN(c2nn3c(-c4cnc(N)c(C(F)(F)F)c4)cnc3s2)C1` (stereo not given) came in with an IC50 of 50 to 1000 nM.

`CS(=O)(=O)N1CCC(Nc2nn3c(-c4cnc(N)c(C(F)(F)F)c4)cnc3s2)CC1` showed a 50% inhibitory concentration (IC50) of 12 nM.

For `Nc1ncc(-c2cnc3sc(NCCN4CCNCC4)nn23)cc1C(F)(F)F`, the IC50 was in the range of 50 to 1000 nM.

`CC(C)S(=O)(=O)N1CCC(Nc2nn3c(-c4cnc(N)c(C(F)(F)F)c4)cnc3s2)CC1` came in with an IC50 of 291 nM.

Take `COC(=O)C1CCN(c2nn3c(-c4cnc(N)c(C(F)(F)F)c4)cnc3s2)CC1`: the IC50 was 297 nM.

In the case of `NCC1CCCN(c2nn3c(-c4cnc(N)c(C(F)(F)F)c4)cnc3s2)C1` (stereo not given), the IC50 was in the range of 50 to 1000 nM.

Regarding `Nc1ccc(-c2cnc3sc(N[C@H]4CC[C@H](O)CC4)nn23)cn1`, the IC50 fell in the range of 50 to 1000 nM.

Molecule `CC(C)(C)OC(=O)NCCNc1nn2c(-c3cnc(N)c(C(F)(F)F)c3)cnc2s1` displayed an IC50 of 50 to 1000 nM.

`CN1CCN(C(=O)NCCNc2nn3c(-c4cnc(N)c(C(F)(F)F)c4)cnc3s2)CC1` registered an IC50 of 262 nM.

The molecule `CS(=O)(=O)N1CCC(Nc2nn3c(-c4cnc(N5CCNCC5)c(C(F)(F)F)c4)cnc3s2)CC1` displayed a 50% inhibitory concentration (IC50) of 1400 nM.

For `CS(=O)(=O)N1CCC(Nc2nn3c(-c4cnc(N)c(C(F)(F)F)c4)c(Cl)nc3s2)CC1`, the half-inhibitory concentration (IC50) turned out to be 24 nM.

`COc1cncc(-c2cnc3sc(NCC4CCN(S(C)(=O)=O)CC4)nn23)c1`: the IC50 lay in the range of 50 to 1000 nM.

The molecule `CC(=O)O[C@H]1CC[C@H](Nc2nn3c(-c4cnc(N)c(C(F)(F)F)c4)c(Cl)nc3s2)CC1` displayed an IC50 of 50 to 1000 nM.

As for `CC(C)(C)OC(=O)N[C@H]1CC[C@H](Nc2nn3c(-c4cnc(N)c(C(F)(F)F)c4)cnc3s2)CC1`, the half-maximal inhibitory concentration (IC50) came out at 12 nM.

Take `Nc1ncc(-c2cnc3sc(N[C@H]4CC[C@@H](O)CC4)nn23)cc1C(F)(F)F`: the IC50 was 77 nM. Compared with the last molecule, the IC50 is about 6.4-fold higher.

`Nc1ncc(-c2cnc3sc(N4CCCC(O)C4)nn23)cc1C(F)(F)F` (stereo not given) registered an IC50 of 50 to 1000 nM.

`CC(C)(C)OC(=O)N1CCC(CNc2nn3c(-c4cnc(N)c(C(F)(F)F)c4)cnc3s2)CC1` gave an IC50 of 50 to 1000 nM.

For `CC(=O)N[C@H]1CC[C@H](Nc2nn3c(-c4cnc(N)c(C(F)(F)F)c4)cnc3s2)CC1`, the IC50 is 50 to 1000 nM.

`Nc1ncc(-c2cnc3sc(N4CCCNC4=O)nn23)cc1C(F)(F)F` yielded an IC50 of 170 nM.

Molecule `C[C@]1(O)CC[C@H](Nc2nn3c(-c4cnc(N)c(C(F)(F)F)c4)cnc3s2)CC1` had an IC50 of 1 to 50 nM.

As for `CN(c1nn2c(-c3cnc(N)c(C(F)(F)F)c3)cnc2s1)[C@H]1CC[C@@](C)(O)CC1`, the half-maximal inhibitory concentration (IC50) is 50 to 1000 nM.

`CN(c1nn2c(-c3cnc(N)c(C(F)(F)F)c3)cnc2s1)C1CCN(S(C)(=O)=O)CC1` had an IC50 of 62 nM.

`COc1cncc(-c2cnc3sc(NC4CCN(C(=O)OC(C)(C)C)CC4)nn23)c1` registered an IC50 of 50 to 1000 nM.

As for `Nc1ncc(-c2cnc3sc(N4CCCC5(CCNCC5)C4)nn23)cc1C(F)(F)F`, the concentration for half-maximal inhibition (IC50) fell in the range of 50 to 1000 nM.

In turn, `COc1cncc(-c2cnc3sc(NCCCNS(C)(=O)=O)nn23)c1` had an IC50 of 50 to 1000 nM.

For `c1cc(-c2cnc3sc(N4CCOCC4)nn23)c2cn[nH]c2c1`, the IC50 lay in the range of 50 to 1000 nM.

In the case of `CN(c1nn2c(-c3cnc(N)c(C(F)(F)F)c3)cnc2s1)[C@H]1CC[C@H](O)CC1`, the IC50 fell in the range of 50 to 1000 nM.

Regarding `CC(C)(C)OC(=O)N1C[C@@H]2CN(c3nn4c(-c5cnc(N)c(C(F)(F)F)c5)cnc4s3)C[C@@H]2C1`, the IC50 was found to be 119 nM.

Molecule `Nc1ncc(-c2cnc3sc(NC4CCC(=NOCCF)CC4)nn23)cc1C(F)(F)F` (stereo not given) gave an IC50 of 1 to 50 nM.

For `CCNC(=O)N[C@H]1CC[C@@H](Nc2nn3c(-c4cnc(N)c(C(F)(F)F)c4)cnc3s2)CC1`, the half-maximal inhibitory concentration (IC50) was determined as 63 nM.

For `CS(=O)(=O)NCC1CCN(c2nn3c(-c4cnc(N)c(C(F)(F)F)c4)cnc3s2)CC1`, the IC50 lay in the range of 50 to 1000 nM.

The molecule `CS(=O)(=O)NC1CCN(c2nn3c(-c4cnc(N)c(C(F)(F)F)c4)cnc3s2)CC1` yielded an IC50 of 162 nM.

`CC(C)(C)OC(=O)N[C@H]1CC[C@@H](Nc2nn3c(-c4cnc(N)c(C(F)(F)F)c4)cnc3s2)CC1` yielded a concentration for half-maximal inhibition (IC50) of 50 to 1000 nM.

`Nc1ncc(-c2cnc3sc(N[C@H]4CC[C@H](N)CC4)nn23)cc1C(F)(F)F`: the IC50 came to 42 nM.

`CCNC(=O)N1CCC(N(C)c2nn3c(-c4cnc(N)c(C(F)(F)F)c4)cnc3s2)CC1` displayed a 50% inhibitory concentration (IC50) of 50 to 1000 nM.

For `CC(C)(C)OC(=O)N1CC(S(=O)(=O)N2CCC(Nc3nn4c(-c5cnc(N)c(C(F)(F)F)c5)cnc4s3)CC2)C1`, the IC50 turned out to be 131 nM.

Turning to `NCC1CCN(c2nn3c(-c4cnc(N)c(C(F)(F)F)c4)cnc3s2)CC1`, the IC50 lay within 50 to 1000 nM.

Turning to `CN(c1nn2c(-c3cnc(N)c(C(F)(F)F)c3)cnc2s1)C1CCC(=NOCCF)CC1` (stereo not given), the IC50 lay within 50 to 1000 nM.

With `CC(C)(C)OC(=O)N1CCC(Nc2nn3c(-c4cnc(N)c(C(F)(F)F)c4)cnc3s2)CC1`, the IC50 lay within 50 to 1000 nM.

In the case of `CS(=O)(=O)NCCCNc1nn2c(-c3cnc(N)c(C(F)(F)F)c3)cnc2s1`, the 50% inhibitory concentration (IC50) lay in the range of 1 to 50 nM.

In turn, `CC(C)(C)OC(=O)N1CCC2(CC1)CC(Nc1nn3c(-c4cnc(N)c(C(F)(F)F)c4)cnc3s1)C2` returned a concentration for half-maximal inhibition (IC50) of 50 to 1000 nM.

Regarding `Nc1ncc(-c2cnc3sc(N4CCC(N)CC4)nn23)cc1C(F)(F)F`, the IC50 lay within 50 to 1000 nM.

`CS(=O)(=O)NC1CCN(c2nn3c(-c4cnc(N)c(C(F)(F)F)c4)cnc3s2)C1` (stereo not given) had an IC50 of 50 to 1000 nM.

Turning to `CC(C)(C)OC(=O)N1CCN(CCNc2nn3c(-c4cnc(N)c(C(F)(F)F)c4)cnc3s2)CC1`, the IC50 came to 86 nM.

With `CS(=O)(=O)N1CCC(Nc2nn3c(-c4cncc(C#N)c4)cnc3s2)CC1`, the IC50 was in the range of 50 to 1000 nM.
